The text below walks through data of patent publication US20100215759A1 (priority 2009, published 2010).

SMILES strings stand for the structures.

In one data set the target is T1, CB2 receptors (Mus musculus, UniProt P47936).
T1 construct: the complete brain (excluding the cerebellum) and the spleen were quickly dissected and kept in ice; from tissue; host or cells: mouse spleen, membrane preparation
Description: biochemical. Format: binding. The procedure: (§1) The affinity of the synthesized compounds towards the CB1 and CB2 cannabinoidergic receptors was evaluated in vitro by radioreceptor binding studies using the method reported hereinunder.
(§2) The technique of the receptor binding allows to establish if, and with which affinity and specificity, a specific compound binds to a particular receptor. To evaluate the affinity of a specific compound to a particular receptor it is necessary to challenge in a particular tissue preparation wherein those specific receptors are present the compound to be tested with a radioactive labelled compound whose affinity for the same receptors is known. […] The amount of radioactivity present in the receptor-compound complex allows furthermore to estimate with great accuracy the amount of compound bound to the receptor. By said method it is therefore possible to establish quickly the affinity of a new compound towards a specific receptor and thus to determine its pharmacological activity. With the same experimental protocol it is possible to evaluate the affinity of the compound towards other receptors and thus establish its specificity degree toward said other receptors.
(§3) The food and water were ad libitum.
(§4) The procedure adopted, based on the use of the compound [^3H]-CP-55,940 (New England Nuclear, Boston, Mass., USA), requires the use of the mouse brain as biological tissue for the evaluation of the affinity towards the CB1 receptors and of the mouse spleen for the affinity assay for the CB2 receptors.
(§5) The animals were sacrificed by cervical dislocation and the complete brain (excluding the cerebellum) and the spleen were quickly dissected and kept in ice.
(§6) The tissue was homogenized in 15 volumes (weight/volume) of TME buffer (50 Mm Tris, 1 mM EDTA and 3 mM MgCl2, pH 7.4) by an Ultra-Turrax and subsequently centrifuged for 10 minutes at 1086×g in a centrifuge refrigerated at 4° C. The recovered supernatant was centrifuged at 45,000×g for 30 minutes at 4° C. by using a Beckman SW41 rotor and the obtained pellet was resuspended in 50 volumes of TME.
(§7) The thus obtained membranes (50-80 μg of proteins) were incubated in the presence of 1 nM of [^3H]-CP55.940 for 1 hour at 30° C. in a final volume of 0.5 ml of TME buffer containing 5 mg/ml of bovine serum albumin (BSA). The non specific binding was measured in the presence of CP55.940 at a 1 μM concentration.
(§8) All the experiments were carried out in polypropylene test tubes pretreated with Sigma-Cote (Sigma Chemical Co. Ltd., Poole, UK) for reducing non specific binding.
(§9) In order to determine the competitive inhibition binding curves, eight different concentrations of each compound were used.
(§10) Incubation was stopped by addition of TME buffer (at 4° C.) containing 5 mg/ml of BSA, and subsequent filtration under vacuum by Whatman GFC filters pretreated with 0.5% of polyethylamine (PEI) and by using a filtering device (Brandell, Gaithersburg, Md., USA). The filters were washed 3 times with […] of Tris HCl buffer (pH 7.4, 4° C.) containing 1 mg/ml of BSA and separately placed in plastic vials containing 4 ml of scintillating liquid (Ultima Gold MV, Packard).
(§11) The radioactivity present in the filters was determined by a scintillator spectrophotometer (Tricarb® 2100, Packard, Meridien, USA).
(§12) Protein determination was carried out by the Bradford method by using the protocol and the reactants supplied by Bio-Rad (Milano, Italy).

For another data set, the target named is T2, CB1 receptors (Mus musculus, UniProt P47746).
T2 construct: the complete brain (excluding the cerebellum) and the spleen were quickly dissected and kept in ice; from tissue; host or cells: mouse brain (excluding cerebellum), membrane preparation
Put plainly: biochemical. The class given is binding. The procedure:
as §1, §2, §3, §4, §5, §6, §7, §8, §9, §10, §11, §12

The test system of the next data set is men. The note with it: local administration in the eye; cited from earlier work.
A further data set deals with old DBA/2J mice. Put plainly: Reduction of intraocular pressure (IOP) after application to the eye, TONOLab tonometer. The class given is in vivo. The note with it: versus basal IOP. The text has this:
The main risk factor in the glaucoma is represented by the high intraocular pressure (IOP). See for instance: Libby R. T. et al., Vis Neurosci. 2005 Sep.-Oct., 22(5):637-48 and Tomida I. et al., Br. J. Opthalmol. 2004 May, 88(5):708-13.
By using the animal model of old DBA/2J mice (see above) it has been evaluated the efficacy of the compound obtained in example 3.1 in reducing the IOP. As said, this compound has a good affinity towards the CB1 receptors in vitro (example 4) and a CB1 agonist action in vivo (example 5). The intraocular pressure has been determined by a TONOLab Tonometer (Tiolat Oy), as reported by M. E. Pease et al. in J. Glaucoma, 2006 December, 15(6):512-519. The compound was dispersed in the commercial emulsion Tocrisolve™, (Tocris), at a concentration of […] and applied to the eye of old DBA/2J mice (8-10 month age; basal IOP comprised between 19.0 and 22.5 mmHg). The applied emulsion volumes were such that the compound doses resulted, respectively, of 100 μg or 50 μg. WIN 55212-2 was dispersed in Tocrisolve™at the concentration of 5 mg/ml and was the reference cannabinoidergic compound. The determination of the ocular pressure was carried out every 30 minutes up to two hours starting from the administration. The obtained results (average of 6 measurements at each time for experimental groups of 8-10 animals for group/dose) are reported in Table 3. IOP decrease was expressed in percent with respect to the basal value.

T2 sequence (P47746 whole entry): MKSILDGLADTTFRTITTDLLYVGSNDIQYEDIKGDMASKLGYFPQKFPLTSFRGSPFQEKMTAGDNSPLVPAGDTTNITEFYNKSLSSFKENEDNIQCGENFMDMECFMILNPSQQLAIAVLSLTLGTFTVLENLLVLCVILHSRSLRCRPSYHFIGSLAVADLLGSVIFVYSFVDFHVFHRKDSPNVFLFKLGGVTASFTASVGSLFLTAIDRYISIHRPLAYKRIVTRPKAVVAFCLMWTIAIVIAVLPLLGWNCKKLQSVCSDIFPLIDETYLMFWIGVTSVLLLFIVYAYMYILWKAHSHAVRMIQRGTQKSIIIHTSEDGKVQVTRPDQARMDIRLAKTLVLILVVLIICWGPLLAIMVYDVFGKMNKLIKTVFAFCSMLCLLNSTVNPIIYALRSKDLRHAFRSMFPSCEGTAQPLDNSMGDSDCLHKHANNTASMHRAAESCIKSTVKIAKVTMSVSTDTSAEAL
T1 sequence (P47936 whole entry): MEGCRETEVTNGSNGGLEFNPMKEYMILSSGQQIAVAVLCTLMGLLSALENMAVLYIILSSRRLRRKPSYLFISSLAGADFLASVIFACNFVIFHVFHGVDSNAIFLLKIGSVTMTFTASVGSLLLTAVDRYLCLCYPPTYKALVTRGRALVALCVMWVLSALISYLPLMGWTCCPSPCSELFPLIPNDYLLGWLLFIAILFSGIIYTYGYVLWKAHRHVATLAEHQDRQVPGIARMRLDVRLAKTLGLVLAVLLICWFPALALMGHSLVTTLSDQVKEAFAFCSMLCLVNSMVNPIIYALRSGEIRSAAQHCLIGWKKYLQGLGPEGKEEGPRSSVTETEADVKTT

A word on the Ki: it is the dissociation constant of the complex between target and ligand, obtained from inhibition or displacement. A lower Ki goes with a stronger hold on the target. For orientation: melting point means the temperature of the solid-liquid transition. `Cc1csc2c1Cc1c(C(=O)NCC3CCC4CC3C4(C)C)nn(-c3ccc(Cl)cc3Cl)c1-2` (stereo not drawn) [Example 3.7, N-myrtanyl-5-methyl-1-(2′,4′-dichlorophenyl)-1,4-dihydro-thieno[3′,2′:4,5]cyclopenta[1,2-c]pyrazol-3-carboxamide] returned a melting point of 112 to 113 °C. The same compound came in with a Ki on CB2 receptors of 4.5 ± 0.8 nM. The compound also gave an inhibition constant Ki at CB1 receptors of 919 ± 226 nM.
Regarding `Cc1c(C(=O)c2cccc3ccccc23)c2cccc3c2n1[C@H](CN1CCOCC1)CO3` [WIN 55212-2], the “IOP reduction in men” value with men was “significant IOP reduction”. Moreover, the “Intraocular Pressure Decrease” value in the data set with old DBA/2J mice (50 μg to the eye in Tocrisolve, 30 minutes) is 4.3%; in the data set with old DBA/2J mice (50 μg to the eye in Tocrisolve, 60 minutes), 3.0%; in the data set with old DBA/2J mice (50 μg to the eye in Tocrisolve, 90 minutes) it was 2.0%; with old DBA/2J mice (50 μg to the eye in Tocrisolve, 120 minutes), 1.9%; with old DBA/2J mice (100 μg to the eye in Tocrisolve, 30 minutes), 23.1%; in the data set with old DBA/2J mice (100 μg to the eye in Tocrisolve, 60 minutes), 21.3%. For the same compound, the “Intraocular Pressure Decrease” value came out at 18.1% in the data set on old DBA/2J mice (100 μg to the eye in Tocrisolve, 90 minutes) and 13.2% in the data set with old DBA/2J mice (100 μg to the eye in Tocrisolve, 120 minutes).
